The text below walks through data of patent publication EP1484329A1, “Indole derivatives with apoptosis inducing activity” (Zentaris GmbH, priority 2003, dated 2004).

Converted amounts (≈) assume the structure as drawn. Like-named read-outs stand apart in the source and are kept apart here.

One assay relates to KB/HeLa. The assay can be described thus: XTT proliferation assay, KB/HeLa. To be noted: Homo sapiens, read-out: XTT Proliferationsassay, EC50 KB/Hela. The class given is cell-based. The source says:
(§1) Die Substanzen 1,2, 4-6 wurden in einem Proliferationstest an etablierten Tumorzelllinien auf ihre anti-proliferative Aktivität hin untersucht (D.A. Scuderio et al. Cancer Res. 1988, 48, 4827-4833). Der verwendete Test bestimmt die zelluläre Dehydrogenase-Aktivität und ermöglicht eine Bestimmung der Zellvitalität und indirekt der Zellzahl. Bei den verwendeten Zelllinien handelt es sich um die humane Cervixkarzinom Zelllinie KB/HeLa (ATCC CCL17), die ovariale Adenokarzinomzelllinie SKOV-3 (ATCC HTB77), die humane Glioblastom Zelllinie SF-268 (NCI 503138) und die Lungenkarzinom Zelllinie NCI-H460 (NCI 503473). Des weiteren wurde zur Untersuchung der Zellzyklus-spezifischen Wirkung der Substanz ein RKOp27 Zellsystem verwendet (M. Schmidt et al. Oncogene19(20):2423-9, 2000). Bei RKO handelt es sich um eine humane Kolonkarzinomlinie, in der der Zellzyklusinhibitor p27 ^kip1 mittels des Ecdyson Expressionssystems induziert zur Expression gebracht und zu einem Zellzyklusarrest spezifisch in G2 geführt werden kann. Eine unspezifisch wirkende Substanz hemmt die Proliferation unabhängig davon, ob die RKO Zelle in G1 oder G2 arretiert ist oder nicht. Zellzyklus-spezifische Substanzen wie beispielsweise Tubulininhibitoren sind hingegen nur dann zytotoxisch, wenn Zellen nicht arretiert sind und der Zellzyklus durchlaufen wird. In Tabelle 1 ist die zytotoxische bzw. wachstumshemmende Aktivität der beschriebenen Verbindungen mit / ohne Expression von p27^kip1gezeigt. Die getesteten Verbindungen zeigten im induzierten Zustand von p27^kiP1 keine zytotoxische Aktivität. Die Ergebnisse zeigen eine sehr potente Hemmung der Proliferation ausgewählter Tumorzelllinien durch die genannten Substanzen.
For orientation: Formazan colour is commonly taken as a measure of viable cells.

In another assay the test system is SKOV-3. The assay can be described thus: XTT proliferation assay, SKOV-3. To be noted: Homo sapiens, SK-OV-3; read-out: XTT Proliferationsassay, EC50 SKOV3. In kind it is cell-based.
From the text: as §1

In the next assay the test system is SF-268. The assay can be described thus: XTT proliferation assay, SF-268. The class given is cell-based. To be noted: Homo sapiens, read-out: XTT Proliferationsassay, EC50 SF-268.
From the text: as §1

The subject of another assay is A549. The assay can be described thus: XTT proliferation assay, A549. The class given is cell-based, human. To be noted: Homo sapiens, read-out: XTT Proliferationsassay, EC50 A549.
From the text: as §1, with “Substanzen. Tabelle 1:” for “Substanzen.”
(§2) Zur weiteren Charakterisierung wurden die Substanzen 1-6 an einem Panel von 7 humanen Tumorzelllinien auf ihre anti-proliferative Wirkung hin untersucht. Bei den untersuchten Zelllinien handelt es sich um die humanen Glioma Zelllinien A172 (ATCC CRL-1620) und U118 (ATCC HTB-15), die humane Lungenkarzinom Zelllinie A549, das humane epidermoide Karzinom A431 (ATCC CRL-2592), die humanen Prostatakarzinom Zelllinien DU145 (ATCC HTB-81) und PC3 (ATCC CRL-1435) und die humane Kolon Adenokarzinomzelllinie HT29 (ATCC HTB-38). Es handelt sich hierbei um sehr gut charakterisierte, etablierte Zelllinien, die von ATCC, ECACC bzw. NCI erhalten und in Kultur genommen wurden. Die in Tab. […]

For a further assay, the system named is A431. Put plainly: XTT proliferation assay, A431. In kind it is cell-based, human. To be noted: Homo sapiens, read-out: XTT Proliferationsassay, EC50 A431.
From the text: as §1, with “Substanzen. Tabelle 1:” for “Substanzen.”
as §2

The test system of the next assay is LT12mdr. Put plainly: XTT proliferation assay, LT12mdr (resistant). The class given is cell-based. To be noted: read-out: XTT Proliferationsassay, EC50 LT12mdr.
From the text: as §1, with “Substanzen. Tabelle 1:” for “Substanzen.”
(§3) Zur weiteren Charakterisierung wurden die Substanzen 1,2,4-6 gegenüber multi drug resistenten Zelllinien im Vergleich zu den nicht-resistenten Wildtypzelllinien untersucht.
(§4) Bei den untersuchten Zelllinien handelt es sich um die murine L1210, die akute myeloische Leukaemie Zelllinie LT12 und um die resistenten Linien L1210/mdr und LT12/mdr. Außerdem wurden die murine P388 Zelllinie (methyl-cholanthreneinduced lymphoid neoplasm) sowie die Doxorubicin-resistente P388 als Testsysteme herangezogen.

In another assay the test system is P388. The assay can be described thus: XTT proliferation assay, P388 (wild type). In kind it is cell-based, murine.
From the text: as §1, with “Substanzen. Tabelle 1:” for “Substanzen.”
as §3, §4

The subject of another assay is Rindertubulin. Put plainly: Inhibition of tubulin polymerisation in vitro. The class given is biochemical, Rind. To be noted: Tubulin with 30% MAPs; mean of two independent experiments. An excerpt:
In diesem Test wird durch Zyklen von Polymerisation und Depolymerisation aufgereinigtes Tubulin eingesetzt, welches durch Zugabe von GTP und Erwärmung zur Polymerisation gebracht wird. […]

The next assay addresses Topoisomerase II (Homo sapiens, UniProt P11388). Put plainly: pRYG relaxation assay for topoisomerase II activity. The class given is biochemical. To be noted: tested at 100, 31.6 and 10 µM. The protocol: Mit diesem Relaxationsassay konnte zusätzlich die inhibitorische Eigenschaft der erfindungsgemäßen Verbindungen auf Topoisomerase II gezeigt werden. Die Testung der erfindungsgemäßen Verbindungen 2 und 4 erfolgte hierbei bei drei unterschiedlichen Konzentrationen (100, 31.6 und 10 µM). Zum Vergleich setzte man die Referenzverbindung m-Amsacrin bei einer Konzentration von 100µM ein.
Zu 1µL vorgelegter Testsubstanz (20fach konzentriert in 100% DMSO) werden 2µL 10x Assay Puffer, 0,5µL pRYG DNA (125ng), 0,5µL human Topoisomerase II (1 unit) und 16µL H2O pipettiert und gemischt. Die Reaktionsansätze werden in den auf 37°C vorgeheizten Heizblock gestellt und 30min bei 37°C inkubiert. Die Inkubation wird nach Zugabe von 4µL 5x Stop Puffer abgestoppt. Danach werden 10µL des Ansatzes auf ein 1,2% Agarosegel mit 0,25µg/mL Ethidiumbromid aufgetragen und 2,5h bei 100V aufgetrennt. Zum Schluß wird das Gel unter UV Anregung fotografiert (s. Graph 3). Die Quantifizierung der Inhibierung der pRYG Relaxation erfolgt mit der GeIPro® Analyzer Software (s. Graph 4). [formula] [formula]

Sequence of Topoisomerase II (P11388 whole entry): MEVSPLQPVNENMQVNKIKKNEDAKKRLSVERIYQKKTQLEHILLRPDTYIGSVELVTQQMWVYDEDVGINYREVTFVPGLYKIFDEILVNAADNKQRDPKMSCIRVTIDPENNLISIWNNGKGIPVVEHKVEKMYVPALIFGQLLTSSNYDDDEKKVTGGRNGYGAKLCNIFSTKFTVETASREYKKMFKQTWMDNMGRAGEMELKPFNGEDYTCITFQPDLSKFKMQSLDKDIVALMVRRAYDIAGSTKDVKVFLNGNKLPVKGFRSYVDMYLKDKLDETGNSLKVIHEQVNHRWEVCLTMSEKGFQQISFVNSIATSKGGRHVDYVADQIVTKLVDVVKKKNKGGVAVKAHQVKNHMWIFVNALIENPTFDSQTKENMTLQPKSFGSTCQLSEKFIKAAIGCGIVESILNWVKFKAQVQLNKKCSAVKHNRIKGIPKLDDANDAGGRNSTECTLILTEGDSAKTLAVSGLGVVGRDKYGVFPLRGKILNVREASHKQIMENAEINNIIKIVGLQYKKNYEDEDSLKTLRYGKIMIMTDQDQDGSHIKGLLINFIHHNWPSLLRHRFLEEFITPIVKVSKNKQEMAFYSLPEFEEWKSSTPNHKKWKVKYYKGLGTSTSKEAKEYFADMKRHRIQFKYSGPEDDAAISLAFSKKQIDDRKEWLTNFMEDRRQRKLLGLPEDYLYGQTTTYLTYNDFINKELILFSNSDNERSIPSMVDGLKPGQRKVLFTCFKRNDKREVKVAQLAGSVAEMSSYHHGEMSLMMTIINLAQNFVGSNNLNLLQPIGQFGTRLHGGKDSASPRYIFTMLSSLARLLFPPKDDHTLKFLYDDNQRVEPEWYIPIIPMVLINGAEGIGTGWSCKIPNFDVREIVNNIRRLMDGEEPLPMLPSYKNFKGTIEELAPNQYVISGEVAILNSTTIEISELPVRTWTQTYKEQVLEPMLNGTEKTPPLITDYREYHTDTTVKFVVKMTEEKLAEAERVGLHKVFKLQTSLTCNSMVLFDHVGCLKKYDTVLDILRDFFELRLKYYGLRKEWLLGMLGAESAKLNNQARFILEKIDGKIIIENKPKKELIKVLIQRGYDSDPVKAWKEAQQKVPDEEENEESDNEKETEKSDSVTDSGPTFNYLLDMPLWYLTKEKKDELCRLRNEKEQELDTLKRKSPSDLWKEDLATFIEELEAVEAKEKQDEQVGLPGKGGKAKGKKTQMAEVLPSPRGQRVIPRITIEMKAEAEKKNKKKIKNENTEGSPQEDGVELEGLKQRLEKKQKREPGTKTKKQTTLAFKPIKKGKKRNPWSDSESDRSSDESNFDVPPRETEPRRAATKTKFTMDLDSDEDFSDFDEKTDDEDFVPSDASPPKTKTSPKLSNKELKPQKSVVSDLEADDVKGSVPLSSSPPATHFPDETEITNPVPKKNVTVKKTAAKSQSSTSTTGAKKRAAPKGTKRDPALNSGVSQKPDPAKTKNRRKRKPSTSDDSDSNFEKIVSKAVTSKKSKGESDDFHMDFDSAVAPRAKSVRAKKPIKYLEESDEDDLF

For `O=C(Nc1ccc2ncccc2c1)C(=O)c1cn(Cc2ccc(Cl)cc2)c2ccccc12` [Verbindung 2, 2-[1-(4-Chlor-benzyl)-1 H-indol-3-yl]-2-oxo-N-chinolin-6-yl-acetamid], the EC50 was 0.027 µg/mL (≈ 0.0614 µM) in the assay on KB/HeLa; 0.018 µg/mL (≈ 0.0409 µM) in the assay on SKOV-3; 0.027 µg/mL (≈ 0.0614 µM) in the assay on SF-268; 0.05 µg/mL (≈ 0.114 µM) in the assay on A549 (A549); 0.014 µg/mL (≈ 0.0318 µM) in the assay on A431 (A-431); 0.063 µg/mL (≈ 0.143 µM) with LT12mdr. Besides, the EC50 with P388 (Mus musculus, P388, read-out: XTT Proliferationsassay, EC50 P388) was found to be 0.037 µg/mL (≈ 0.0841 µM). The “Hemmung der Tubulin-Polymerisation, EC50” value in the assay on Rindertubulin came to 1.23 µg/mL. In addition, the “Hemmung der Topoisomerase II (pRYG Relaxationsassay)” value on Topoisomerase II is on record as “signifikante Hemmung der Topoisomerase II”.

With `O=C(Nc1ccc2ncccc2c1)C(=S)c1cn(Cc2ccc(Cl)cc2)c2ccccc12` [Verbindung 4, 2-[1-(4-Chlorbenzyl)-1 H-indol-3-yl]-N-chinolin-6-yl-2-thioxoacetamid], the EC50 in the assay with A549 (A549, A549) was 0.041 µg/mL (≈ 0.0899 µM); in the assay with A431 (A-431, A431), 0.016 µg/mL (≈ 0.0351 µM). Also, the “Hemmung der Tubulin-Polymerisation, EC50” value in the assay on Rindertubulin is 0.97 µg/mL. Moreover, the “Hemmung der Topoisomerase II (pRYG Relaxationsassay)” value at Topoisomerase II is on record as “signifikante Hemmung der Topoisomerase II”.

`O=C(Nc1cnc2nccnc2c1)C(=O)c1cn(Cc2ccc(Cl)cc2)c2ccccc12` [Verbindung 5, 2-[1-(4-Chlor-benzyl)-1H-indol-3-yl]-2-oxo-N-pyrido[2,3-b]pyrazin-7-yl-acetamid]: the EC50 came to 0.045 µg/mL (≈ 0.102 µM) in the assay with KB/HeLa; 0.029 µg/mL (≈ 0.0656 µM) in the assay with SKOV-3; 0.042 µg/mL (≈ 0.095 µM) with SF-268; 0.017 µg/mL (≈ 0.0385 µM) in the assay on A549 (A549, A549); 0.011 µg/mL (≈ 0.0249 µM) in the assay with A431 (A-431, A431); 0.017 µg/mL (≈ 0.0385 µM) with LT12mdr. Besides, the EC50 in the assay on P388 (Mus musculus, P388; read-out: XTT Proliferationsassay, EC50 P388) was determined as 0.012 µg/mL (≈ 0.0272 µM). Moreover, the “Hemmung der Tubulin-Polymerisation, EC50” value in the assay with Rindertubulin was 0.71 µg/mL.
